Tested on: HUVEC cells
Method: Human umbilical vein endothelial cells (HUVECs) were grown in endothelial growth medium (EGM-2, Lonza) supplemented with 10% fetal bovine serum (Gibco) and 1% PSG (Penicillin-Streptomycin-Glutamine, Gibco). […] At the same time, the cellular toxicity of degradation product of PXDDA on HUVEC cells was also evaluated. For this purpose, 104 cells were first seeded and cultured on the 96-well plates for 3 days. The degradation products were diluted with culture medium to obtain different concentrations (12.5, 25, and 40% v/v), and they were then added into the cells. After 36 h, 20 μl of MTT solution was added and the plated was incubated at 37° C. for 4 h. After adding 200 μl of DMSO, the absorbance was recorded at 570 nm. The measurements were carried out in triplicate.

Substance: poly(xylitol-dodecanedioic acid) [PXDDA]
- toxicity of degradation products to HUVEC cells (MTT): No tangible toxicity

Reference: patent US11370880B1 (FLORIDA ATLANTIC UNIVERSITY BOARD OF TRUSTEES, priority 2018, dated 2022)
